# Assay results from patent publication US20210386367A1, “DEVICES AND SYSTEMS FOR GASTROINTESTINAL MICROBIOME DETECTION AND MANIPULATION” (Progenity, Inc., priority 2018, published 2021).
# Where two headings read alike, the source gives them in different places.
# Legend:
# Format in all cases: cell-based
# [1] = system: Pseudomonas aeruginosa; assay: Broth microdilution MIC, 50 clinical isolates
# Outline: (§1)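 CLSI broth microdilution in cation-adjusted Mueller Hinton broth, with 3% lysed horse blood added for streptococci. Two-fold dilutions, inoculum ~5×10^5 CFU/mL, 35° C for 16-24 hr in ambient air (streptococci with CO2 planchets). MIC = lowest concentration inhibiting visible growth.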
# [2] = system: Enterobacter aerogenes; assay: Broth microdilution MIC, 50 clinical isolates
# Outline: as §1
# [3] = system: Proteus mirabilis; assay: Broth microdilution MIC, 50 clinical isolates
# Outline: as §1
# [4] = system: three isolates each of E. coli, Streptococcus spp. and Bacteroides spp.; assay: Time-kill assay, overall summary
# Experimental: MIC values were determined by broth microdilution in accordance with guidelines from the Clinical and Laboratory Standards Institute (CLSI; (1) “Methods for Dilution Antimicrobial Susceptibility Tests for Bacteria That Grow Aerobically; Approved Standard; 11th ed.,” CLSI standard M07, 2018; (2) “Performance Standards for Antimicrobial Susceptibility Testing; 28th ed.,” CLSI supplement M100, 2018).
# During the time-kill study, the test flasks were sampled at 2, 6, and 24 hr for determination of viable counts using the track dilution method as described above. Bacteroides was also sampled at 48 hr. All E. coli plates were incubated for 20-24 hr at 35° C., Streptococci for 20-24 hr at 35° C. in a CO2 incubator, and Bacteroides for approximately 48 hr at 35° C. in the anaerobe chamber. Colonies were counted manually, and the CFU/mL was determined from the average count of the duplicate plates, followed by the calculation of the log10 CFU/mL. The limit of detection for the assay was 50 CFU/mL.
compound,measurement,setting,value
CO/N=C(\C(=O)N[C@@H]1C(=O)N2C(C(=O)O)=C(CSc3nc(=O)c(=O)[nH]n3C)CS[C@H]12)c1csc(N)n1 [ceftriaxone],Cumulative percentage of isolates inhibited at MIC,[1]; 4 μg/mL,2.0%
same,Number of test isolates at MIC,[1]; 4 μg/mL,1
same,Cumulative percentage of isolates inhibited at MIC,[1]; 8 μg/mL,10.0%
same,Number of test isolates at MIC,[1]; 8 μg/mL,4
same,Cumulative percentage of isolates inhibited at MIC,[1]; 16 μg/mL,16.0%
same,Number of test isolates at MIC,[1]; 16 μg/mL,3
same,Cumulative percentage of isolates inhibited at MIC,[1]; 32 μg/mL,36.0%
same,Number of test isolates at MIC,[1]; 32 μg/mL,10
same,Cumulative percentage of isolates inhibited at MIC,[1]; 64 μg/mL,58.0%
same,Number of test isolates at MIC,[1]; 64 μg/mL,11
same,Cumulative percentage of isolates inhibited at MIC,[1]; 128 μg/mL,72.0%
same,Number of test isolates at MIC,[1]; 128 μg/mL,7
same,Cumulative percentage of isolates inhibited at MIC,[1]; >128 μg/mL,100.0%
same,Number of test isolates at MIC,[1]; >128 μg/mL,14
same,MIC50,"[1]; Pseudomonas aeruginosa, read-out: MIC50",64 µg/mL
same,MIC90,"[1]; Pseudomonas aeruginosa, read-out: MIC90",> 128 µg/mL
same,MIC90,[1]; listed as CTR,>128 µg/mL
same,% R,[2],26%
same,% S,[2],74%
same,MIC range,[2],0.03 to 64 µg/mL
same,Mode,[2],0.06 µg/mL
same,Cumulative percentage of isolates inhibited at MIC,[2]; 0.03 μg/mL,6.0%
same,Number of test isolates at MIC,[2]; 0.03 μg/mL,3
same,Cumulative percentage of isolates inhibited at MIC,[2]; 0.06 μg/mL,42.0%
same,Number of test isolates at MIC,[2]; 0.06 μg/mL,18
same,Cumulative percentage of isolates inhibited at MIC,[2]; 1 μg/mL,74.0%
same,Number of test isolates at MIC,[2]; 1 μg/mL,2
same,Cumulative percentage of isolates inhibited at MIC,[2]; 8 μg/mL,78.0%
same,Number of test isolates at MIC,[2]; 8 μg/mL,2
same,Cumulative percentage of isolates inhibited at MIC,[2]; 16 μg/mL,86.0%
same,Number of test isolates at MIC,[2]; 16 μg/mL,4
same,Cumulative percentage of isolates inhibited at MIC,[2]; 32 μg/mL,94.0%
same,Number of test isolates at MIC,[2]; 32 μg/mL,4
same,Cumulative percentage of isolates inhibited at MIC,[2]; 64 μg/mL,100.0%
same,Number of test isolates at MIC,[2]; 64 μg/mL,3
same,MIC50,"[2]; Klebsiella aerogenes, read-out: MIC50",0.12 µg/mL
same,MIC90,"[2]; Klebsiella aerogenes, read-out: MIC90",32 µg/mL
same,% R,[2]; listed as CTR,26%
same,% R,[3],Six
same,% S,[3],94%
same,Mode,[3],0.004 µg/mL
same,Cumulative percentage of isolates inhibited at MIC,[3]; 0.004 μg/mL,62.0%
same,Number of test isolates at MIC,[3]; 0.004 μg/mL,21
same,Cumulative percentage of isolates inhibited at MIC,[3]; 0.008 μg/mL,84.0%
same,Number of test isolates at MIC,[3]; 0.008 μg/mL,11
same,Cumulative percentage of isolates inhibited at MIC,[3]; 0.015 μg/mL,86.0%
same,Number of test isolates at MIC,[3]; 0.015 μg/mL,1
same,Cumulative percentage of isolates inhibited at MIC,[3]; 0.03 μg/mL,88.0%
same,Number of test isolates at MIC,[3]; 0.03 μg/mL,1
same,Cumulative percentage of isolates inhibited at MIC,[3]; 0.06 μg/mL,92.0%
same,Number of test isolates at MIC,[3]; 0.06 μg/mL,2
same,Cumulative percentage of isolates inhibited at MIC,[3]; 1 μg/mL,94.0%
same,Number of test isolates at MIC,[3]; 1 μg/mL,1
same,Cumulative percentage of isolates inhibited at MIC,[3]; 4 μg/mL,96.0%
same,Number of test isolates at MIC,[3]; 4 μg/mL,1
same,Cumulative percentage of isolates inhibited at MIC,[3]; 8 μg/mL,98.0%
same,Number of test isolates at MIC,[3]; 8 μg/mL,1
same,Cumulative percentage of isolates inhibited at MIC,[3]; >128 μg/mL,100.0%
same,Number of test isolates at MIC,[3]; >128 μg/mL,1
same,MIC50,"[3]; Proteus mirabilis, read-out: MIC50",0.004 µg/mL
same,MIC90,"[3]; Proteus mirabilis, read-out: MIC90",0.06 µg/mL
same,% R,[3]; listed as CTR,6%^
same,Cumulative percentage of isolates inhibited at MIC,[3]; ≤0.002 μg/mL,20.0%
same,Number of test isolates at MIC,[3]; ≤0.002 μg/mL,10
same,overall time-kill outcome,[4],bactericidal activity
